Test results as given in patent US7258984B2, “Compositions and methods for identifying agents which regulate autolytic processes in bacteria” (priority 2001, dated 2007).

Assays:
Assay type in all cases: cell-based, Staphylococcus aureus
S. aureus sarA mutant = experiment: TRITON X-100 sensitivity, sarA mutant
Procedure: (§1) TRITON® X-100 sensitivity was determined for rat, sarA, and rat-sarA double-mutant strains.
(§2) The effect of TRITON® X-100 on growing cells was determined by diluting cultures grown overnight to an OD650 nm of 0.1 in TSB with varying concentrations of TRITON® X-100. Cells were incubated at 37° C. with shaking and the optical density was recorded hourly for seven to eight hours.
(§3) TRITON® X-100-induced autolysis assays were conducted by diluting cultures grown overnight to an OD650 nm of 0.05 in TSB containing 1 M NaCl. Cells were allowed to grow at 37° C. with shaking until an OD650 nm of 0.7 was reached. Cells were harvested, washed twice with ice cold water and then resuspended in the same volume of 0.05 M Tris-HCl, pH 7.2, containing 0.05% TRITON® X-100. Cells were incubated at 30° C. with shaking and lysis was determined by measuring absorbance at OD600 nm at 30 minutes intervals.

S. aureus rat mutant [1] = experiment: TRITON X-100 sensitivity, rat mutant
Procedure: as §1, §2, §3

[2] = system: S. aureus rat-sarA double-mutant; experiment: TRITON X-100-induced cell lysis, rat-sarA double mutant; conditions: compared with single mutants
Procedure: as §1, §2, §3

[3] = system: S. aureus rat deletion mutant; experiment: Penicillin-induced lysis, rat deletion mutant (ACL2530); conditions: 100 μg penicillin (3× MIC)
Procedure: (§4) Similar to the rat transposon mutant, the rat deletion mutant was unable to grow to an OD650 nm of 1.7 (early-stationary).
(§5) Penicillin sensitivity assays were conducted by diluting rat mutant cultures grown overnight to an OD650 nm of 0.05 in TSB containing the appropriate antibiotics to maintain selection. Cultures were grown at 37° C. with shaking to reach exponential phase (OD650 nm=0.5). Penicillin G was added to a concentration of 0.1 μg/ml. Optical densities at 650 nm were measured every hour for eight to nine hours.

wild-type S. aureus = experiment: Penicillin sensitivity assay (growth curve, OD650 nm), wild-type strain; conditions: 200 ng/ml (subinhibitory) added at OD650 nm of 0.5, mid-log phase
Procedure: (§6) Rat plays a role in regulating autolytic activity of S. aureus. […] Furthermore, inactivation of the rat locus renders the S. aureus bacteria sensitive to lysis upon growth beyond the mid-log phase. To evaluate whether the cell lysis of the rat mutant was additive to the effect of a subinhibitory concentration of penicillin, 200 ng/ml of penicillin was added to a growing culture of the rat mutant at an OD650 nm of 0.5, corresponding to the mid-log phase. […] This finding is consistent with the additive effect of penicillin upon the lytic propensity of the rat mutant late in the growth cycle. […] In comparison to the parental strain, the rat mutant with subinhibitory concentrations of penicillin has a 3-4 log kill than the parental strain with antibiotics.
as §5

[4] = system: S. aureus complemented strain (ACL2531); experiment: Penicillin-induced lysis, complemented strain (ACL2531); conditions: 100 μg penicillin (3× MIC)
Procedure: as §4
as §5, with “Penicillin G was added to a concentration of 0.1 μg/ml.” left out

S. aureus rat mutant [5] = experiment: Plating of antibiotic-treated cultures on agar plates without antibiotic selection (kill); conditions: subinhibitory concentrations of penicillin; plated on agar without antibiotic selection
Procedure: as §6

S. aureus rat mutant [6] = experiment: Penicillin sensitivity assay (growth curve, OD650 nm), rat mutant; conditions: 200 ng/ml (subinhibitory) added at OD650 nm of 0.5, mid-log phase
Procedure: as §6, §5

Row | Substance | TRITON X-100 concentration at which sensitivity was displayed (S. aureus sarA mutant) | TRITON X-100 concentration at which sensitivity was displayed (S. aureus rat mutant [1]) | TRITON X-100-induced cell lysis [2] | lysis in the presence of penicillin [3] | optical density as the growth cycle progressed after addition of penicillin (wild-type S. aureus) | lysis in the presence of penicillin [4] | kill of rat mutant compared with the parental strain with antibiotics (S. aureus rat mutant [5]) | optical density as the growth cycle progressed after addition of penicillin (S. aureus rat mutant [6])
1 | TRITON® X-100 | ≥ 0.01% | ≥ 0.01% | more severe defect |  |  |  |  | 
2 | penicillin |  |  |  | readily lysed | no increase in optical density | behaved like wild-type | 3-4 log | further reduction in optical density
